Consider 9 compounds from ChEMBL document CHEMBL5442219.

Each structure is given as a SMILES string.

Common to all, as to conditions: Compound concentration 10 µM
Test [1] addresses T1, Alpha-1D adrenergic receptor (Homo sapiens) (UniProt P25100).
T1 sequence (whole entry): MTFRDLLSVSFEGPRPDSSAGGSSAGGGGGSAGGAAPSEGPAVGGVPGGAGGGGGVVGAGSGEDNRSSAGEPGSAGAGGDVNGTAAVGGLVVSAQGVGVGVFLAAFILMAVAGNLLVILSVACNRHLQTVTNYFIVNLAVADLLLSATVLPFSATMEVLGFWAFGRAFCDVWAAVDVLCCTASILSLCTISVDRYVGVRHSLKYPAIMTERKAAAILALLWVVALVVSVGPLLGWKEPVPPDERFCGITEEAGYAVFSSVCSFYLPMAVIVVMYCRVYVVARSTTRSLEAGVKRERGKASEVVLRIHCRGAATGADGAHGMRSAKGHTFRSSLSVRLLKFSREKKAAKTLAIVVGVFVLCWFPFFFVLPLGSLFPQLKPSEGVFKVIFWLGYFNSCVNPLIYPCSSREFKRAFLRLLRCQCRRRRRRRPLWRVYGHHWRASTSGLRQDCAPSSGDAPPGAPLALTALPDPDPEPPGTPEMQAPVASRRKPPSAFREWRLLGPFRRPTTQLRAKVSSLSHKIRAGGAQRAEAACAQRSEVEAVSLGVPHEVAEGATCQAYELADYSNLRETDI

The target of test [2] is T2, Alpha-2B adrenergic receptor (Homo sapiens) (UniProt P18089).
T2 sequence (whole entry): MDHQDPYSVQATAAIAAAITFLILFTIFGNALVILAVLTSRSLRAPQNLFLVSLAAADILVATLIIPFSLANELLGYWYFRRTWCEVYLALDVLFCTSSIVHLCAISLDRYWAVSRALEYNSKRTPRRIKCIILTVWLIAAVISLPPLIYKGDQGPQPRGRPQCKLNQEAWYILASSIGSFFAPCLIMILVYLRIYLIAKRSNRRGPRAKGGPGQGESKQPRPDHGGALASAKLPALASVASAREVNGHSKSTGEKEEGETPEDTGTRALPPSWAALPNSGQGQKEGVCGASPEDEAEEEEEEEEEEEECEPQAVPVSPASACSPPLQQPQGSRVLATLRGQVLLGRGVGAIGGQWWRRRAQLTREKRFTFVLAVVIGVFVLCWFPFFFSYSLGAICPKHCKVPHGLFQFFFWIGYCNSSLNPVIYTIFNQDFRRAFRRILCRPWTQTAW

Test [3] has as its target Beta-2 adrenergic receptor (Homo sapiens) (UniProt P07550).
Test [4] concerns the target Muscarinic acetylcholine receptor M3 (Homo sapiens) (UniProt P20309).
In test [5] the target is T3, Muscarinic acetylcholine receptor M4 (Homo sapiens) (UniProt P08173).
T3 sequence (whole entry): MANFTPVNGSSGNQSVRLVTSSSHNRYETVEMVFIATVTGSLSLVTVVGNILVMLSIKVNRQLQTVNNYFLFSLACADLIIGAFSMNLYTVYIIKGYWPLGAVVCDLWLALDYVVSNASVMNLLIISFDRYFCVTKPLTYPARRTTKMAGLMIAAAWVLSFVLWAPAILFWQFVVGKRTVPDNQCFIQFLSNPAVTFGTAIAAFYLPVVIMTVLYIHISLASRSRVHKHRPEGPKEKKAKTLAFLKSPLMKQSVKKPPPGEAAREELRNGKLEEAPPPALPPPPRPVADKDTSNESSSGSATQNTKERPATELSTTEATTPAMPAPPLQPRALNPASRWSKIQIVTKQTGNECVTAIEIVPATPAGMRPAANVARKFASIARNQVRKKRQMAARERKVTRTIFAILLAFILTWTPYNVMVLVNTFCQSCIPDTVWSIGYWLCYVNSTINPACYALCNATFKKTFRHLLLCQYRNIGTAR

Test [6] deals with D(3) dopamine receptor (Homo sapiens) (UniProt P35462).
Test [7] has as its target T4, D(4) dopamine receptor (Homo sapiens) (UniProt P21917).
T4 sequence (whole entry): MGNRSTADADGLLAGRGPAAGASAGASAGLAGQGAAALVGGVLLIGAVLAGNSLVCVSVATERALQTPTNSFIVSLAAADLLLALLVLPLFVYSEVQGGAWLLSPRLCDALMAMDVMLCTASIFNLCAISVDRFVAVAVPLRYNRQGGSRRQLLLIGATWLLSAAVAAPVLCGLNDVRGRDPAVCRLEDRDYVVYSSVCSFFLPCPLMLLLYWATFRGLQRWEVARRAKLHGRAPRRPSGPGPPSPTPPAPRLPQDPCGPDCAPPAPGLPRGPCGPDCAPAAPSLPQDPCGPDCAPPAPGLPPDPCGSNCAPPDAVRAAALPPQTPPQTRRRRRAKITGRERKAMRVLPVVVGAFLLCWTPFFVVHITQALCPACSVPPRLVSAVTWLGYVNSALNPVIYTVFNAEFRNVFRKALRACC

Test [8] has as its target Histamine H1 receptor (Homo sapiens) (UniProt P35367).
Test [9] concerns the target Histamine H4 receptor (Homo sapiens) (UniProt Q9H3N8).
Test [10] deals with T5, 5-hydroxytryptamine receptor 1A (Homo sapiens) (UniProt P08908).
T5 sequence (whole entry): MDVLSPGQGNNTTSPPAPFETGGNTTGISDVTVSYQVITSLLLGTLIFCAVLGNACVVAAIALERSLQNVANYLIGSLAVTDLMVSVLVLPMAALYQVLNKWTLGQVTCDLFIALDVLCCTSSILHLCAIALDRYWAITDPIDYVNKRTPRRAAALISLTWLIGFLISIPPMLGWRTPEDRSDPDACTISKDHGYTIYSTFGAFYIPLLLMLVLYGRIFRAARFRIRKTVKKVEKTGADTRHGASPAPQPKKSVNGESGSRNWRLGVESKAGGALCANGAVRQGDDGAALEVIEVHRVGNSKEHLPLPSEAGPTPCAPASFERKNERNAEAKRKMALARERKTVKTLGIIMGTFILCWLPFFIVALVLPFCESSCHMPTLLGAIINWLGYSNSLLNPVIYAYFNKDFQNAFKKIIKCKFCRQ

The target of test [11] is 5-hydroxytryptamine receptor 2B (Homo sapiens) (UniProt P41595).
The target in test [12] is 5-hydroxytryptamine receptor 5A (Homo sapiens) (UniProt P47898).
In test [13] the target is Sodium-dependent noradrenaline transporter (Homo sapiens) (UniProt P23975).
Test [14] has as its target Sodium-dependent dopamine transporter (Homo sapiens) (UniProt Q01959).

One may read the inhibition as the drop in the measured response relative to a control, in per cent.

Chain of Sodium-dependent noradrenaline transporter (Homo sapiens) (P23975 whole entry): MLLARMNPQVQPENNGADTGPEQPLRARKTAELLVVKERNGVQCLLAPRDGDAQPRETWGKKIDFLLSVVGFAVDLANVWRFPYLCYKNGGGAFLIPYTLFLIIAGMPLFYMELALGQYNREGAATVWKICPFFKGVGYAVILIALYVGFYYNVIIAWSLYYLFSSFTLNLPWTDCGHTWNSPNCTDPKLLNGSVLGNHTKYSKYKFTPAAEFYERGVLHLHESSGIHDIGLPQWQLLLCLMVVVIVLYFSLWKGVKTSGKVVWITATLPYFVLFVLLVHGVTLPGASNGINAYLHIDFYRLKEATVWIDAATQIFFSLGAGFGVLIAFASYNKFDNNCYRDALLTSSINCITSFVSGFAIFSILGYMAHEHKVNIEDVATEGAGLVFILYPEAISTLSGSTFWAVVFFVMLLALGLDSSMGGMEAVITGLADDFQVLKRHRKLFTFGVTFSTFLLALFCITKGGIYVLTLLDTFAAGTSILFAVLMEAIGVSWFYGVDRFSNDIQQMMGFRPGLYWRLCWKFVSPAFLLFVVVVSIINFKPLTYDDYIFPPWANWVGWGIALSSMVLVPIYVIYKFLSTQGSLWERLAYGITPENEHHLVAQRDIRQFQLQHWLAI
Chain of Histamine H1 receptor (Homo sapiens) (P35367 whole entry): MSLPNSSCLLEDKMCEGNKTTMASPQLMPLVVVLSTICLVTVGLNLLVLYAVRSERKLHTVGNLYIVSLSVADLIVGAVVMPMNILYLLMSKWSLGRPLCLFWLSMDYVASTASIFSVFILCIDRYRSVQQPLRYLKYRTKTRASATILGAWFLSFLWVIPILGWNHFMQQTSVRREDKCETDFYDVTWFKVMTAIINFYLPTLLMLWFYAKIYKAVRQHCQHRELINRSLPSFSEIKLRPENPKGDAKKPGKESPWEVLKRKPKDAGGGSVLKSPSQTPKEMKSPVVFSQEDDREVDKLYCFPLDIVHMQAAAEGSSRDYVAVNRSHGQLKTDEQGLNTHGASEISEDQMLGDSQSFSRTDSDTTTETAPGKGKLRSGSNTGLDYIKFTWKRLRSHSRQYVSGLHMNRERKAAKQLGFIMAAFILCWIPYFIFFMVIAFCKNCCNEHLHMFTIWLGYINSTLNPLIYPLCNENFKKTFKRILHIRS
Chain of Beta-2 adrenergic receptor (Homo sapiens) (P07550 whole entry, looked up): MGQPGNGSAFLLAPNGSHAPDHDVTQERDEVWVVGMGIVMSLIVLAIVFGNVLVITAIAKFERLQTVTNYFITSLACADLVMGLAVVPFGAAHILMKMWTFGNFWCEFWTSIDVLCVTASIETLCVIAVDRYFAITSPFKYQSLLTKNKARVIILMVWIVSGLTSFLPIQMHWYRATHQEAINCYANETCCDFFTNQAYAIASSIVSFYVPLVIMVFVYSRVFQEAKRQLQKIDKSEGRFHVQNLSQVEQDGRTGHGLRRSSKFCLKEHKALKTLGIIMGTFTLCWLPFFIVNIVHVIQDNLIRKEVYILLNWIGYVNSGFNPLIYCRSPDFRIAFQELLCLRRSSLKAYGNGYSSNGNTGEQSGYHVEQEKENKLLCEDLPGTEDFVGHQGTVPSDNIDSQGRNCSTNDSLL
Chain of D(3) dopamine receptor (Homo sapiens) (P35462 whole entry): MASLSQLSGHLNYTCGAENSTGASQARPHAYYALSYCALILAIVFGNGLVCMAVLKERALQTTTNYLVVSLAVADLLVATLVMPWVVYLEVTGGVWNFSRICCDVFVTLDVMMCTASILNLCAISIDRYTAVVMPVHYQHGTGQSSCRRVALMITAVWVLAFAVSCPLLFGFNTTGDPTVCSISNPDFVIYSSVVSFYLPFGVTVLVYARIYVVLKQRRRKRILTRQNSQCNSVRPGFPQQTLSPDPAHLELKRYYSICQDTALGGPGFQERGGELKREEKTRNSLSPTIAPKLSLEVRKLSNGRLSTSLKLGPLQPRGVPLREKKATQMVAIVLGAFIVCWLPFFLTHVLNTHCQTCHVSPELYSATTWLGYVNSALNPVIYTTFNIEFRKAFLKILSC
Chain of Muscarinic acetylcholine receptor M3 (Homo sapiens) (P20309 whole entry, looked up): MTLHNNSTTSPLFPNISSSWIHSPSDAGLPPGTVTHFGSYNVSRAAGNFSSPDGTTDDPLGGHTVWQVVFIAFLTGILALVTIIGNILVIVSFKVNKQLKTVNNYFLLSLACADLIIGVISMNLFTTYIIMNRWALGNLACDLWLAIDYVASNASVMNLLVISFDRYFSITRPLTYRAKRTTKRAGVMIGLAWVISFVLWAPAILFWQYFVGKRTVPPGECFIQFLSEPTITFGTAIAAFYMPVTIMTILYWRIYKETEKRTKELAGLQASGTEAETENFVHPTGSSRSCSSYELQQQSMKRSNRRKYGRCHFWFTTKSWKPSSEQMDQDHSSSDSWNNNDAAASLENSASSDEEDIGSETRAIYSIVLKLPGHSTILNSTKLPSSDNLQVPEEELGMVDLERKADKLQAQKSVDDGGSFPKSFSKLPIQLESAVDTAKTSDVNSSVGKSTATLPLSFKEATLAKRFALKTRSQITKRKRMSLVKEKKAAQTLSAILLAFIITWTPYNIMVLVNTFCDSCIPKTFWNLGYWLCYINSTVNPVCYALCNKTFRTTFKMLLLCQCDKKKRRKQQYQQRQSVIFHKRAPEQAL
Chain of Sodium-dependent dopamine transporter (Homo sapiens) (Q01959 whole entry): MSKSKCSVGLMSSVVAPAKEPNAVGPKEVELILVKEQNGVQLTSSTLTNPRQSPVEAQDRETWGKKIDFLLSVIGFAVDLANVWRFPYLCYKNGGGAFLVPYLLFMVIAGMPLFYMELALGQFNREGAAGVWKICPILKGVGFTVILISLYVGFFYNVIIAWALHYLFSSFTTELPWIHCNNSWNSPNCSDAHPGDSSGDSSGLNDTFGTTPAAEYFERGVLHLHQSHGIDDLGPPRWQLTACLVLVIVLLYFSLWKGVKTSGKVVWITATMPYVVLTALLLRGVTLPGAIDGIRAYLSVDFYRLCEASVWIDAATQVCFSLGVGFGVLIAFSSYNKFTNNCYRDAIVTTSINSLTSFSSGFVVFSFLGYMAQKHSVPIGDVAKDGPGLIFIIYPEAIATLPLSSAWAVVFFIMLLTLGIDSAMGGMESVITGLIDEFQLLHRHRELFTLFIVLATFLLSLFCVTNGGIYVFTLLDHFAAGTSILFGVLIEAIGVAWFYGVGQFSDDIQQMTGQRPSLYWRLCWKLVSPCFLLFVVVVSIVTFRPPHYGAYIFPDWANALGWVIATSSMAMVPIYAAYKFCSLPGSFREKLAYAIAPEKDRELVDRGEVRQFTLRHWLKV
Chain of Histamine H4 receptor (Homo sapiens) (Q9H3N8 whole entry): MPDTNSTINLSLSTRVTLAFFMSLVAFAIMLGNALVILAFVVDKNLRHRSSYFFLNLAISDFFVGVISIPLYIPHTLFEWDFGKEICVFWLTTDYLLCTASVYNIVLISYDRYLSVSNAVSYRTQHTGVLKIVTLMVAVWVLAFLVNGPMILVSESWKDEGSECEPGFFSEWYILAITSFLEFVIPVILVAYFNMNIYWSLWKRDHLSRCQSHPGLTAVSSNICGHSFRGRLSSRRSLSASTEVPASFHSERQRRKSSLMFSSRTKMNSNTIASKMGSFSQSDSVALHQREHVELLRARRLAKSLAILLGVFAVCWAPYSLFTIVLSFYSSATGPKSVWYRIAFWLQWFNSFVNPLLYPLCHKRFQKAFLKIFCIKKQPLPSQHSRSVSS
Chain of 5-hydroxytryptamine receptor 2B (Homo sapiens) (P41595 whole entry): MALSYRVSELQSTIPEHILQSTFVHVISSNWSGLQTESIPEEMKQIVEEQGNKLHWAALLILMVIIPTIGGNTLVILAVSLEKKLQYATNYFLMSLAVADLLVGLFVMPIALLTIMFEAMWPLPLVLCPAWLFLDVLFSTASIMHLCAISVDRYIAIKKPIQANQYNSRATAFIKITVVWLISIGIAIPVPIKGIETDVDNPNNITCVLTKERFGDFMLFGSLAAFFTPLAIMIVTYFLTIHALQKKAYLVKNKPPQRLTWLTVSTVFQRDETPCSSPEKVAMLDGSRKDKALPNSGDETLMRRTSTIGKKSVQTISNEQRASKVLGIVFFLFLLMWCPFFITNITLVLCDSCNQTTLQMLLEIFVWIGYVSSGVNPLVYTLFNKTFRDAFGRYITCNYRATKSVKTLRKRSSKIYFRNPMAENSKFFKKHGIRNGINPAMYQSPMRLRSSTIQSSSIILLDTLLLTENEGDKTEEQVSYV
Chain of 5-hydroxytryptamine receptor 5A (Homo sapiens) (P47898 whole entry): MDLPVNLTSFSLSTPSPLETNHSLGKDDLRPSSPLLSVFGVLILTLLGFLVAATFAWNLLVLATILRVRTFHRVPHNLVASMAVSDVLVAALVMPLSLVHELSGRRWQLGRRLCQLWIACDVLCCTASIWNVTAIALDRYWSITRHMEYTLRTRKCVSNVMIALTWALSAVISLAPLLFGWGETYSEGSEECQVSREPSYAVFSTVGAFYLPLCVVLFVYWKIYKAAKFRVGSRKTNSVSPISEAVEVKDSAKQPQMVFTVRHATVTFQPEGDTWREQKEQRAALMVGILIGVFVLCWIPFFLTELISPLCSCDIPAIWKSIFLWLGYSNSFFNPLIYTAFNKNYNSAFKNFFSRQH

Turning to `CCc1cc2c(cc1CC)CC(NC[C@H](O)c1ccc(O)c3[nH]c(=O)ccc13)C2`, the inhibition was 75.3% in test [1]; 38.5% in [2]; 94.3% in [3]; 18.1% in test [4]; 17.9% in [5]; 58.8% in test [6]. The inhibition is 24.2% in test [7]; 34.9% in test [8]; 4.91% in test [9]; 1.29% in [10]; 92.6% in test [11]; 6.33% in [12]. In addition, the inhibition in [13] is 84.6%; in test [14], 83.1%.

For the compound `O=c1ccc2ccc(OCCCCN3CCN(c4cccc5sccc45)CC3)cc2[nH]1`, the inhibition was 92.5% in test [1]; 94.3% in test [2]; 78.8% in test [3]; 21.4% in test [4]; 30.5% in test [5]; 100% in test [6]. The inhibition in test [7] was 101%; in test [8], 100%; in test [9] it was 8%; in test [10], 103%; in test [11], 96%; in test [12] it was 93.1%. Besides, the inhibition in [13] is 96.6%; in test [14], 88.2%.

`COc1ccc(NC(=O)c2ccc(-c3ccc(-c4noc(C)n4)cc3C)cc2)cc1OCCN(C)C`: the inhibition in test [1] was 38%; in [2], 77.3%; in test [3] it was 13.1%; in test [4], 37.2%; in test [5], 7.57%; in [6] it was 33.1%. In addition, the inhibition in [7] is 45.4%; in [8] it was 22.1%; in test [9], 49%; in test [10] it was 32.1%; in test [11], 90.6%; in test [12] it was 65.6%. Also, the inhibition in test [13] was 94%; in [14] it was 86.1%.

As to `Cc1c(P(=S)(c2ccccc2)c2ccccc2)n2ccccc2[n+]1C/C=C/c1ccccc1`, the inhibition in test [1] was 8.81%; in test [2], 45.7%; in [3], 65.4%; in test [4] it was 71%; in test [5] it was 68.4%; in test [6], 48.5%. Also, the inhibition in test [7] is 25.8%; in test [8] it was 67.1%; in [9], 31%; in test [10] it was 54.3%; in test [11] it was 8.18%; in [12], 42.1%. Moreover, the inhibition in test [13] and in test [14] was 83.2% throughout.

For the compound `NCCc1c[nH]c2ccc(C(N)=O)cc12`, the inhibition in test [1] was 14.8%; in test [2], 24.8%; in test [3], 4.33%; in test [4] it was 3.95%; in test [5] it was -6.09%; in test [6] it was 7.17%. Moreover, the inhibition in test [7] was 8.02%; in test [8], -4.09%; in test [9], -3.92%; in test [10] it was 91.4%; in test [11], 78.8%; in [12], 99.4%. Moreover, the inhibition in test [13] is 63.2%; in test [14], 44.6%.

Consider `Cc1cn2cc(CC(=O)N3CCC4(CC3)CN(Cc3ccc(-n5nccn5)cc3Cl)C4)nc2s1`, for which the inhibition in test [1] is 13.3%; in [2] it was 11%; in [3] it was 67.1%; in test [4], 98.2%; in [5], 87.5%; in test [6] it was 71.1%. Also, the inhibition is 50.6% in test [7]; 30.4% in test [8]; -5.48% in test [9]; 13% in test [10]; 19.4% in test [11]; 8.61% in [12]. The inhibition is 44.3% in [13] and 44.2% in test [14].

For `Clc1ccc(CCCOCCCN2CCCCC2)cc1`, the inhibition in test [1] is 0.84%; in [2] it was 1.88%; in test [3], -7.56%; in test [4], 44.5%; in test [5], 76.8%; in test [6], 47.4%. In addition, the inhibition in [7] is 21.5%; in [8], 68.7%; in test [9] it was -7.57%; in test [10] it was 16.8%; in test [11], 37%; in test [12], -0.39%. The inhibition is 64.5% in test [13] and 25.6% in [14].

For `c1nc(CC2CCNCC2)c[nH]1`, the inhibition is 7.26% in [1]; 23% in [2]; 5.09% in [3]; 6.47% in test [4]; -0.76% in test [5]; -4.62% in test [6]. Further, the inhibition was 14.9% in test [7]; 26.1% in [8]; 105% in test [9]; -10% in test [10]; 30.4% in test [11]; -4.49% in [12]. The inhibition in [13] was 15.7%; in [14] it was 14.6%.

On to `Cc1cc(NC(=O)NCCN2CCC(O)(Cc3ccccc3)CC2)c2ccccc2n1`, for which the inhibition is 16.2% in test [1]; 29.6% in test [2]; 28.1% in test [3]; 24.4% in test [4]; 17.1% in test [5]; 27.4% in [6]. Also, the inhibition in [7] is 21.1%; in [8] it was 5.97%; in [9] it was 3.45%; in test [10], -6.82%; in test [11], 62.2%; in [12], 5.79%. For the same compound, the inhibition is 69.5% in test [13] and 43.9% in test [14].
